PMC10480161, “Identification of potent and selective N-myristoyltransferase inhibitors of Plasmodium vivax liver stage hypnozoites and schizonts” (Nature Communications, 2023)
pIC50: −log10 of the molar value. “And” between values parts separate entries of the source, which are not always exact repeats. Equal values may be shown once.

Key:
[1] = HepG2 cytotoxicity assay (Live/Dead staining); conditions: human, HepG2 cells
Method in brief: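 HepG2 cells (5000/well) treated with compounds at 1 to 20 µM, re-dosed with fresh compound every 24 h. Viability scored at 72 h by calcein-AM/ethidium homodimer (1 µM each, 10 min, 37 °C) live/dead staining under fluorescence microscopy.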

[2] = test system: P. vivax schizonts; assay: P. vivax liver stage assay, schizonts; format: cell-based, Plasmodium vivax; conditions: for Number of liverstage Schizonts per well: 20 µM, 8 dpi; for pIC50: Plasmodium vivax, Hepatocyte, 120 h, primary human hepatocytes, treatment day 5 to 8 post-infection, isolates 2 and 3
Experimental: We next evaluated the candidate compounds against liver-stage P. vivax (Fig. 5). P. vivax sporozoites were obtained from three independent patient isolates and cultured in primary human hepatocytes from a single donor lot using a 384-well microculture system as described previously. Cells were infected and treated with NMTis at 20 µM beginning day 5 post-infection until day 8 when the infection rates were quantified by fluorescent microscopy.
Accordingly, we applied dose–response curves of all the tested NMTs on parasite isolates 2 and 3 over concentrations up to 20 µM (Fig. 5c, d, Source Data file). We observed similar kinetics for all inhibitors, with a gradual decrease in parasite load upon increasing the drug concentration. […] Nuclei were counted in each well using DAPI staining as a measure of toxicity (Supplementary Fig. 86, Supplementary Source data). We used the phosphatidylinositol 4-kinase inhibitor (PI4Ki), MMV390048, as a positive control for eliminating schizonts[37],[38].
(§1) Plasmodium vivax liver stage assays were performed as described previously. Cryopreserved primary human hepatocytes (Cat No. F00995-P) and hepatocyte culture medium (HCM) (InVitroGroTM CP Medium) were obtained from Bioreclamation IVT, Inc., (Baltimore, MD, USA). Briefly, we seeded 384-well plates with primary hepatocytes from a single donor lot at a density of 25,000 cells per well. We then infected the hepatocytes with 14,000 freshly hand-dissected sporozoites per well. Cells were exposed to the compounds at indicated concentrations from day 5 post-infection. We used Pi4K inhibitor MMV390048, at 20 µM, as a positive control to eliminate P. vivax liver schizonts. We then proceeded to feed cultures every day, replacing the compounds until day 8 post-infection. Cells were fixed with 4% PFA, permeabilized with 1% Triton X-100, blocked with 2% BSA, and stained with DAPI and PvUIS4 antibodies to detect schizonts and hypnozoites forms by confocal microscopy. For antibody dilutions, PvUIS4 (kind gift from Dr. Noah Sather, Seattle Children’s Research Institute) was diluted 1:250 and the secondary antibody was anti-mouse AlexaFluor-594 (Cat # A-11005; RRID: AB_2534073) diluted 1:1000. DAPI was diluted 1:2000. The images were processed, analyzed and outlier cells were removed using IMARIS (Bitplane Inc.) image analysis software.

[3] = test system: P. vivax hypnozoites; assay: P. vivax liver stage assay, hypnozoites; format: cell-based, Plasmodium vivax; conditions: for Hypnozoites per well: Isolate 2, replicate wells (Figure 6d); for Number of liverstage hypnozoites per well: 20 µM, 8 dpi; for pIC50: Plasmodium vivax, Hepatocyte, 120 h, primary human hepatocytes, treatment day 5 to 8 post-infection, isolate 2
Experimental: Finally, we evaluated the NMT-binding compounds against non-developing P. vivax hypnozoites. […] (Fig. 6A). […] We, therefore, evaluated the impact of all tested compounds on P. vivax hypnozoites using these two isolates.
as §1

[4] = target: PvNMT (Plasmodium vivax, UniProt A5K1A2); assay: NMT activity assay (CPM detection of free CoA), PvNMT; conditions: for pIC50: PvNMT IC50, mean of two or more determinations; for SI: enzyme selectivity, HsNMT IC50/PvNMT IC50
Sequence of PvNMT (A5K1A2 entry or part of it): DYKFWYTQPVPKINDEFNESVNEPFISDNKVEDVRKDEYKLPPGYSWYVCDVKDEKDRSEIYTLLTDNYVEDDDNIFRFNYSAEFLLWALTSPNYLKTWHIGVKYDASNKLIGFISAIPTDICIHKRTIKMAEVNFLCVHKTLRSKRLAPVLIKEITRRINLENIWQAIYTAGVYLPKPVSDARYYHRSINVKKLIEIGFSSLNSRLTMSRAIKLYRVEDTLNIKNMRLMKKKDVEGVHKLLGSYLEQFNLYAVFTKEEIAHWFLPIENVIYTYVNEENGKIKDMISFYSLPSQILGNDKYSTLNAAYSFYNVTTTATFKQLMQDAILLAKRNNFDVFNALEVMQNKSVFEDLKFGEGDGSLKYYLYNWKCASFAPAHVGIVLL

[5] = isolate 1, technical replicates (Fig. 5b)
[6] = isolate 2, technical replicates (Fig. 5b)
[7] = isolate 3, technical replicates (Fig. 5b)
[8] = isolate 1, technical replicates (Fig. 6C)
[9] = isolate 2, technical replicates (Fig. 6C)
[10] = isolate 3, technical replicates (Fig. 6C)

Structure (SMILES) | IC50 at 48 h [1] [nM] | Number of liverstage Schizonts per well [2, 5] | Number of liverstage Schizonts per well [2, 6] | Number of liverstage Schizonts per well [2, 7] | Schizonts per well ([2]; Isolate 2, 1.25 uM) | Schizonts per well ([2]; Isolate 2, 5 uM) | Schizonts per well ([2]; Isolate 3, 1.25 uM) | Schizonts per well ([2]; Isolate 3, 2.5 uM) | Schizonts per well ([2]; Isolate 3, 5 uM) | pIC50 [2] | Hypnozoites per well ([3]; 1.25 uM) | Hypnozoites per well ([3]; 2.5 uM) | Hypnozoites per well ([3]; 5 uM) | Hypnozoites per well ([3]; 10 uM) | Number of liverstage hypnozoites per well [3, 8] | Number of liverstage hypnozoites per well [3, 9] | Number of liverstage hypnozoites per well [3, 10] [per well] | Hypnozoites per well ([3]; 20 uM) | pIC50 [3] | pIC50 [4] | further results
Cc1nn(C)c(C)c1CCOc1cccnc1-c1ccnc(N2CCNCC2)c1 [Compound 12a] | > 20000 | 5 per well and 3 per well and 1 per well | 1 per well and 0 per well and 3 per well | 2 per well and 6 per well | 12 per well and 16 per well and 11 per well | 8 per well and 10 per well and 7 per well | 12 per well and 15 per well | 12 per well and 9 per well | 7 per well and 5 per well | 5.42 to 5.52 | 12 and 10 and 8 | 8 and 7 and 13 | 6 and 8 and 7 | 1 and 3 and 0 | 8 per well (2×) and 0 per well | 0 per well (2×) and 3 per well | 0 | 0 (2×) and 3 | 5.24 | 7.43 | schizonts (fold change to DMSO) mean diff ([2]; isolate 1, 20 µM): 0.850; schizonts (fold change to DMSO) mean diff ([2]; isolate 2, 20 µM): 0.9245; schizonts (fold change to DMSO) mean diff ([2]; isolate 3, 20 µM): 0.7273; hypnozoites (fold change to DMSO) mean diff ([3]; isolate 1, 20 µM): 0.754; hypnozoites (fold change to DMSO) mean diff ([3]; isolate 2, 20 µM): 0.897; SI [4]: 146.7
Cc1nn(C)c(C)c1CCOc1cccnc1-c1cccc(N2CCNCC2)c1 [Compound 12b] | > 20000 | 1 per well and 2 per well and 0 per well | 2 per well (2×) and 4 per well | 1 per well and 2 per well | 12 per well and 11 per well and 9 per well | 8 per well and 7 per well and 5 per well | 11 per well and 15 per well | 9 per well and 11 per well | 8 per well and 10 per well | 5.34 to 5.64 | 3 and 4 (2×) | 3 and 4 (2×) | 2 (2×) and 3 | 1 (2×) and 0 | 5 per well and 9 per well and 0 per well | 1 per well and 0 per well (2×) | 0 | 1 and 0 (2×) | 5.77 | 7.10 | Schizonts per well ([2]; Isolate 2, 2.5 uM): 11 per well and 7 per well and 10 per well; Schizonts per well ([2]; Isolate 2, 10 uM): 2 per well and 4 per well; Schizonts per well ([2]; Isolate 3, 10 uM): 4 per well and 3 per well; Schizonts per well ([2]; Isolate 3, 20 uM (Fig. 5c-d)): 1 per well and 2 per well; SI [4]: > 145 and > 150 and > 250
